Assay [1] concerns female ICR mice. Description: In vivo hEPO mRNA expression, serum hEPO after tail vein injection. The note with it: 0.5 mg/kg tail vein; for in vivo mRNA expression of sphingomyelin-containing LNP compared to corresponding DSPC control formulation: FIG. 9; for hEPO protein expression level in mice among formulations of Table 6.7: FIG. 7, sphingomyelin of different tail length. On the procedure: Lipid nanoparticles encapsulating human erythropoietin (hEPO) mRNA were prepared as described above, and systemically administered to 6-8 week old female ICR mice (Xipuer-Bikai, Shanghai) at 0.5 mg/kg dose by tail vein injection. Mice were euthanized by CO2 overdoses at 6 hours post administration, and blood samples were taken for hEPO measurement. Particularly, serum were separated from total blood by centrifugation at 5000 g for 10 minutes at 4° C., snap-frozen and stored at −80° C. for analysis. The serum hEPO level was measured using an ELSA assay carried out using a commercial kit (DEP00, R&D systems) according to manufacturer's instructions. The hEPO expression levels (μg/ml) measured from the tested group are plotted in FIG. 4, showing the mean value and standard deviation (SD) of at least five repeated experiments (test animals) for each group.
(§1) Each LNP formulation was systemically administered to 6-8 week old female ICR mice (Xipuer-Bikai, Shanghai) at 0.5 mg/kg dose by tail vein injection, and blood samples were taken for hEPO measurement as described herein. The hEPO expression levels (μg/ml) measured from the tested group are plotted in FIG. 6, showing the mean value and standard deviation (SD) of at least five repeated experiments (test animals) for each group.
Each LNP formulation was systemically administered to 6-8 week old female ICR mice (Xipuer-Bikai, Shanghai) at 0.5 mg/kg dose by tail vein injection, and blood samples were taken for hEPO measurement as described herein. The hEPO expression levels (μg/ml) measured from the tested group are plotted in FIG. 7, showing the mean value and standard deviation (SD) of at least five repeated experiments (test animals) for each group.
as §1, with “9,” for “6,”, “group. As shown, for each of the tested cationic lipids, the average in vivo expression level of mRNA was higher for the sphingomyelin containing composition as compared to the corresponding control formulation containing an equivalent amount of DSPC instead of sphingomyelin.” for “group.”

Assay [2] deals with Hela cells. The experiment in a line: In vitro GFP mRNA expression from LNP formulations. Format: cell-based. Particulars: for in vitro GFP expression of LNP formulated using sphingomyelin with this cationic lipid: FIG. 3C. On the procedure:
Lipid nanoparticles encapsulating green fluorescent protein (GFP) mRNA were prepared as described above. Hela cell line was seeded in a 96-well plate. LNP formulation was mixed with 10 μg/mL ApoE at 1:1 (v/v) ratio, then added to the cells at 200 ng/well or 400 ng/well concentrations, and incubated for 36 to 48 hours. GFP intensity was measured with […] following manufacturer's instructions, and fluorescence intensity (relative light units; RLU) of different groups were plotted in FIG. 3A to 3C, showing the mean value and standard deviation (SD) of at least five repeated experiments for each group.
Hela cell line was seeded in a 96-well plate. LNP formulation was mixed with 10 μg/mL ApoE at 1:1 (v/v) ratio at 37° C. for 15 min, then added to the cells at 400 ng/well concentrations, and incubated for 36 to 48 hours. GFP intensity was measured with […] following manufacturer's instructions, and fluorescence intensity (relative light units; RLU) of different groups were plotted in FIG. 8, showing the mean value and standard deviation (SD) of at least three repeated experiments for each group.

`CCCCCCCCC(CCCCCC)C(=O)OCCCCCCN(CCCCO)CCCCCCOC(=O)C(CCCCCC)CCCCCCCC` (stereo not drawn) [ALC-0315, reference compound]: the “in vivo mRNA expression of sphingomyelin-containing LNP compared to corresponding DSPC control formulation” value in assay [1] is given as “significantly higher”.
`CCCCCCCCC(CCCCCC)COC(=O)CCCCCN(CCCCCC(=O)OCC(CCCCCC)CCCCCCCC)CCN(CCO)C1CCC1` (stereo not drawn) [Formulation C1]: the “in vitro GFP expression of LNP formulated using sphingomyelin with this cationic lipid” value in assay [2] is “enhanced in vitro GFP expression”. Further, the “in vivo mRNA expression of sphingomyelin-containing LNP compared to corresponding DSPC control formulation” value in assay [1] was “significantly higher”.
Turning to `CCCCCCCCC(CCCCCCCC)CNC(=O)CCCCCN(CCO)CCN(CCCCCC(=O)OCC(CCCCCCCC)CCCCCCCC)C1CCC1` [Formulation C3], in assay [2] (GFP mRNA, 400 ng/well, FIG. 8), the “in vitro mRNA expression of sphingomyelin-containing LNP compared to corresponding DSPC control formulation” value is “significantly higher”.
As to `CCCCCCCC(=O)OCC(CCCCN(CCCCCO)CCCCC(COC(=O)CCCCCCC)COC(=O)CCCCCCC)COC(=O)CCCCCCC` [Formulation C14], in assay [1], the “in vivo mRNA expression of sphingomyelin-containing LNP compared to corresponding DSPC control formulation” value is reported as “significantly higher”.
As to `CCCCC/C=C\C/C=C\CCCCCCCC(=O)OCCCCCCN(CCO)CCCCC(COC(=O)CCCCCCC)COC(=O)CCCCCCC` [Formulation C16], the “in vivo mRNA expression of sphingomyelin-containing LNP compared to corresponding DSPC control formulation” value in assay [1] was “significantly higher”.
Regarding `CCCCCCCCCOC(=O)CCCCCCCN(CCO)CCCCCCCC(=O)OC(CCCCCCCC)CCCCCCCC` [Lipid 5, reference compound], in assay [2], the “in vitro GFP expression of LNP formulated using sphingomyelin with this cationic lipid” value was “enhanced in vitro GFP expression”.
`CCCCCCCCCCCCC/C=C/[C@@H](O)[C@H](COP(=O)([O-])OCC[N+](C)(C)C)NC(=O)CCCCCCCCCCCCC` [SM-02, 14:0(d18:1/14:0)]: in assay [1], the “hEPO protein expression level in mice among formulations of Table 6.7” value is “highest protein expression level”.
Turning to `CCCCCCCCCCCCC/C=C/[C@@H](O)[C@H](COP(=O)([O-])OCC[N+](C)(C)C)NC(=O)CCCCCCCCCCCCCCC` [SM-03, 16:0(d18:1/16:0)], the “hEPO protein expression level in mice among formulations of Table 6.7” value in assay [1] is given as “highest protein expression level”.

For the origin of these results see patent US20240218399A1, “LIPID COMPOUNDS AND LIPID NANOPARTICLE COMPOSITIONS” (SUZHOU ABOGEN BIOSCIENCES CO., LTD., priority 2021, published 2024).
